Assay results taken from patent publication US10792360B1, “Compositions and methods for treating inflammatory bowel disease using CCR9 inhibitor and anti-TNF-alpha blocking antibodies” (ChemoCentryx, Inc., priority 2019, dated 2020).

Assay: Compound 1 plasma concentration at trough (LC-MS) in piroxicam-accelerated MDR1a−/− colitis mice
Assay type: in vivo, mouse
Conditions: 90 mg/kg SC BID in 10% Cremophor-EL; trough blood after 3rd and 21st day of dosing; FIG. 1
Description: Compound 1 was dosed at 90 mg/kg in 10% Cremophor-EL, SC, BID. Vehicle was 10% Cremophor-EL and was administered SC, BID. Anti-mouse TNFα clone XT3.11 (Rat IgG1), 300 μg/mouse, QD/QOD; Isotype-matched control Clone HRPN (Rat IgG1), 300 μg/mouse, QD/QOD.
Blood was taken at trough from all Compound 1-dosed mice, and plasma analyzed by Liquid Chromatography-Mass Spectroscopy to determine Compound 1 concentration. Trough blood was taken after the 3rd day (left panel) and 21st day (right panel) of dosing (FIG. 1).

## CC(C)(C)c1ccc(S(=O)(=O)Nc2ccc(Cl)cc2C(=O)c2cc[n+]([O-])cc2)cc1 [Compound 1]
  Compound 1 plasma concentration at trough: met or exceeded the minimal concentration established for 98% receptor coverage
